{
  "source": "patent US20230042612A1",
  "about": "“METHODS OF CONTROLLING OR PREVENTING INFESTATION OF PLANTS BY A PHYTOPATHOGENIC MICROORGANISM OF THE GENUS MACROPHOMINA SPP” (SYNGENTA CROP PROTECTION AG, priority 2019, published 2023)",
  "system": "Macrophomina phaseolina",
  "test": "Strawberry pot trial in the greenhouse, soil drench at planting, efficacy against Macrophomina phaseolina",
  "format": "in vivo",
  "settings": "250 g AI/ha drench at planting, strawberry 'Sweet Ann'; for Pest severity (IS 0-5; 0 = no damage, 5 = severe damage): 6 replications",
  "procedure": "A strawberry pot trial was carried out in the greenhouse Vero Beach, United States to evaluate the efficacy of different compounds against Macrophomina phaseolina.\nThe plants were planted in 4 L pots with Vero Beach Mix (50% potting media and 50% pasteurized sand). The plants were bare root strawberry of the variety ‘Sweet Ann’. The strawberry plants were partially planted, then were inoculated with 2 grams of the infested millet. The inoculum was grown on twice sterilized millet for 1-2 weeks. The isolate used was originally isolated from strawberry. After the inoculation the roots were completely covered. At the day of planting each plant was drench applied with 100 mL of compound solution. The application dose was calculated based on a plant spacing of 30.5 cm by 45.7 cm. The plants were grown in a greenhouse that averaged 32° C. in the day and 21° C. at night. Plants were watered daily. The disease severity was evaluated after 44 and 65 days after application using a […] index scale (5=severe damage, 0=no damage).",
  "key": {"[1]": {"settings": "65 days after application (second assessment)"}},
  "data": [
    {"smiles": "O=C(NCCc1ncc(C(F)(F)F)cc1Cl)c1ccccc1C(F)(F)F", "note": "[Fluopyram]", "values": [
      {"measurement": "% efficacy based on disease incidence", "setting": "44 days after planting", "value": 44.33, "unit": "%"},
      {"measurement": "Pest severity (IS 0-5; 0 = no damage, 5 = severe damage)", "setting": "44 days after planting", "value": "1.67,A"},
      {"measurement": "% efficacy based on disease incidence", "setting": "[1]", "value": 1.60, "unit": "%"},
      {"measurement": "Pest severity (IS 0-5; 0 = no damage, 5 = severe damage)", "setting": "[1]", "value": "4.92,A"}
    ]}
  ]
}
